Results reported in ChEMBL document CHEMBL3885881, “DrugMatrix”.

Organism: Rattus norvegicus
Assay type: toxicity, organism-based, Sprague-Dawley
Conditions: in vivo, po, 24 h, route oral GAVAGE, time 1 day; for ABSOLUTE BASOPHIL / ABSOLUTE EOSINOPHIL / ABSOLUTE LYMPHOCYTE / ABSOLUTE MONOCYTE / BASOPHIL / EOSINOPHIL / ERYTHROCYTE COUNT / HEMATOCRIT / HEMOGLOBIN / LEUKOCYTE COUNT / LYMPHOCYTE / MEAN CORPUSCULAR HEMOGLOBIN / MEAN CORPUSCULAR HEMOGLOBIN CONCENTRATION / MEAN CORPUSCULAR VOLUME / MONOCYTE / NEUTROPHIL / PLATELET COUNT / ABSOLUTE SEGMENTED NEUTROPHIL / NUCLEATED RED BLOOD CELLS: tissue Blood; for ALANINE AMINOTRANSFERASE / ALBUMIN / ALKALINE PHOSPHATASE / ASPARTATE AMINOTRANSFERASE / BLOOD UREA NITROGEN / CARBON DIOXIDE / CHLORIDE / CHOLESTEROL / CREATINE PHOSPHOKINASE / CREATININE / GLUCOSE / LIPASE / PHOSPHORUS / POTASSIUM / SODIUM / TOTAL BILIRUBIN / TOTAL PROTEIN / URIC ACID / LACTATE DEHYDROGENASE: tissue Plasma
[1] = 0 mg/kg, vehicle control, dose level Control, vehicle 100 % SALINE
[2] = 2 mg/kg, dose level High, vehicle 100 % SALINE
[3] = 0 mg/kg, vehicle control, dose level Control, vehicle .5 % CMC
[4] = 740 mg/kg, dose level High, vehicle .5 % CMC

Description: DrugMatrix - Regimen: Single

Question: Which results are given for COc1cccc2c1C(=O)c1c(O)c3c(c(O)c1C2=O)C[C@@](O)(C(C)=O)C[C@@H]3O[C@H]1C[C@H](N)[C@H](O)[C@H](C)O1 [DAUNORUBICIN]?
Answer: ABSOLUTE BASOPHIL [1]: 73.3 cells/µL; ABSOLUTE EOSINOPHIL [1]: 86.7 cells/µL; ABSOLUTE LYMPHOCYTE [1]: 8400 cells/µL; ABSOLUTE MONOCYTE [1]: 350 cells/µL; BASOPHIL [1]: 0.63%; EOSINOPHIL [1]: 0.73%; ERYTHROCYTE COUNT [1]: 6.55 x10E6/uL; HEMATOCRIT [1]: 42.83%; HEMOGLOBIN [1]: 13.6 G/DL; LEUKOCYTE COUNT [1]: 11.33 x10E3/uL; LYMPHOCYTE [1]: 74.77%; MEAN CORPUSCULAR HEMOGLOBIN [1]: 20.77 pg; MEAN CORPUSCULAR HEMOGLOBIN CONCENTRATION [1]: 31.7 G/DL; MEAN CORPUSCULAR VOLUME [1]: 65.53 fL; MONOCYTE [1]: 3%; NEUTROPHIL [1]: 20.2%; PLATELET COUNT [1]: 1394.33 x10E3/uL; ALANINE AMINOTRANSFERASE [1]: 34 u/L; ALBUMIN [1]: 4.03 G/DL; ALKALINE PHOSPHATASE [1]: 345.33 u/L; ASPARTATE AMINOTRANSFERASE [1]: 69.67 u/L; BLOOD UREA NITROGEN [1]: 14.33 mg/dL; CARBON DIOXIDE [1]: 46 mmol/L; CHLORIDE [1]: 102.67 MEQ/L; CHOLESTEROL [1]: 85 mg/dL; CREATINE PHOSPHOKINASE [1]: 292 u/L; CREATININE [1]: 0.2 mg/dL; GLUCOSE [1]: 168 mg/dL; LIPASE [1]: 13 u/L; PHOSPHORUS [1]: 11.2 mg/dL; POTASSIUM [1]: 7.07 MEQ/L; SODIUM [1]: 144.67 MEQ/L; TOTAL BILIRUBIN [1]: 0.27 mg/dL; TOTAL PROTEIN [1]: 6.57 G/DL; URIC ACID [1]: 0.73 mg/dL; ABSOLUTE BASOPHIL [2]: 30 cells/µL; ABSOLUTE EOSINOPHIL [2]: 60 cells/µL; ABSOLUTE LYMPHOCYTE [2]: 7160 cells/µL; ABSOLUTE MONOCYTE [2]: 260 cells/µL; BASOPHIL [2]: 0.33%; EOSINOPHIL [2]: 0.67%; ERYTHROCYTE COUNT [2]: 6.43 x10E6/uL; HEMATOCRIT [2]: 42.57%; HEMOGLOBIN [2]: 13.5 G/DL; LEUKOCYTE COUNT [2]: 9.23 x10E3/uL; LYMPHOCYTE [2]: 77.03%; MEAN CORPUSCULAR HEMOGLOBIN [2]: 21.03 pg; MEAN CORPUSCULAR HEMOGLOBIN CONCENTRATION [2]: 31.73 G/DL; MEAN CORPUSCULAR VOLUME [2]: 66.3 fL; MONOCYTE [2]: 2.83%; NEUTROPHIL [2]: 18.5%; PLATELET COUNT [2]: 1328.67 x10E3/uL; ALANINE AMINOTRANSFERASE [2]: 37.33 u/L; ALBUMIN [2]: 3.93 G/DL; ALKALINE PHOSPHATASE [2]: 397.67 u/L; ASPARTATE AMINOTRANSFERASE [2]: 67.67 u/L; BLOOD UREA NITROGEN [2]: 13.67 mg/dL; CARBON DIOXIDE [2]: 39.33 mmol/L; CHLORIDE [2]: 104.67 MEQ/L; CHOLESTEROL [2]: 84 mg/dL; CREATINE PHOSPHOKINASE [2]: 230.33 u/L; CREATININE [2]: 0.27 mg/dL; GLUCOSE [2]: 179 mg/dL; LACTATE DEHYDROGENASE [2]: 60.33 u/L; LIPASE [2]: 9.67 u/L; PHOSPHORUS [2]: 11.57 mg/dL; POTASSIUM [2]: 6.13 MEQ/L; SODIUM [2]: 146 MEQ/L; TOTAL BILIRUBIN [2]: 0.2 mg/dL; TOTAL PROTEIN [2]: 6.37 G/DL; URIC ACID [2]: 1 mg/dL

Question: Which results are given for COc1ccccc1[N+](=O)[O-] [2-NITROANISOLE]?
Answer: ABSOLUTE EOSINOPHIL [3]: 150 CELLS/uL; ABSOLUTE LYMPHOCYTE [3]: 13279.83 CELLS/uL; ABSOLUTE MONOCYTE [3]: 654.5 CELLS/uL; ABSOLUTE SEGMENTED NEUTROPHIL [3]: 1565.67 CELLS/uL; BASOPHIL [3]: 0%; EOSINOPHIL [3]: 1%; ERYTHROCYTE COUNT [3]: 5.36 x10E6/uL; HEMATOCRIT [3]: 33.37%; HEMOGLOBIN [3]: 12.52 G/DL; LEUKOCYTE COUNT [3]: 15.65 x10E3/uL; LYMPHOCYTE [3]: 84.83%; MEAN CORPUSCULAR HEMOGLOBIN [3]: 23.4 pg; MEAN CORPUSCULAR HEMOGLOBIN CONCENTRATION [3]: 37.52 G/DL; MEAN CORPUSCULAR VOLUME [3]: 62.32 fL; MONOCYTE [3]: 4.17%; NEUTROPHIL [3]: 10%; NUCLEATED RED BLOOD CELLS [3]: 0 /100WBC; PLATELET COUNT [3]: 1020 x10E3/uL; ALANINE AMINOTRANSFERASE [3]: 49 u/L; ALBUMIN [3]: 4.47 G/DL; ALKALINE PHOSPHATASE [3]: 361.17 u/L; ASPARTATE AMINOTRANSFERASE [3]: 78.67 u/L; BLOOD UREA NITROGEN [3]: 13.17 mg/dL; CARBON DIOXIDE [3]: 29.67 mmol/L; CHLORIDE [3]: 100.83 MEQ/L; CHOLESTEROL [3]: 82.17 mg/dL; CREATININE [3]: 0.15 mg/dL; GLUCOSE [3]: 150.83 mg/dL; LACTATE DEHYDROGENASE [3]: 239.17 u/L; LIPASE [3]: 7.83 u/L; PHOSPHORUS [3]: 13.82 mg/dL; POTASSIUM [3]: 6.62 MEQ/L; SODIUM [3]: 144.25 MEQ/L; TOTAL BILIRUBIN [3]: 0.15 mg/dL; TOTAL PROTEIN [3]: 6.2 G/DL; URIC ACID [3]: 1.57 mg/dL; ABSOLUTE EOSINOPHIL [4]: 270.67 CELLS/uL; ABSOLUTE LYMPHOCYTE [4]: 12900.33 CELLS/uL; ABSOLUTE MONOCYTE [4]: 775.33 CELLS/uL; ABSOLUTE SEGMENTED NEUTROPHIL [4]: 1353.67 CELLS/uL; BASOPHIL [4]: 0%; EOSINOPHIL [4]: 2%; ERYTHROCYTE COUNT [4]: 5.82 x10E6/uL; HEMATOCRIT [4]: 35.73%; HEMOGLOBIN [4]: 13 G/DL; LEUKOCYTE COUNT [4]: 15.3 x10E3/uL; LYMPHOCYTE [4]: 84.33%; MEAN CORPUSCULAR HEMOGLOBIN [4]: 22.4 pg; MEAN CORPUSCULAR HEMOGLOBIN CONCENTRATION [4]: 36.43 G/DL; MEAN CORPUSCULAR VOLUME [4]: 61.43 fL; MONOCYTE [4]: 5%; NEUTROPHIL [4]: 8.67%; NUCLEATED RED BLOOD CELLS [4]: 0 /100WBC; PLATELET COUNT [4]: 1078.67 x10E3/uL; ALANINE AMINOTRANSFERASE [4]: 63 u/L; ALBUMIN [4]: 4.53 G/DL; ALKALINE PHOSPHATASE [4]: 432.67 u/L; ASPARTATE AMINOTRANSFERASE [4]: 85.67 u/L; BLOOD UREA NITROGEN [4]: 13 mg/dL; CARBON DIOXIDE [4]: 29 mmol/L; CHLORIDE [4]: 102.33 MEQ/L; CHOLESTEROL [4]: 77.67 mg/dL; CREATININE [4]: 0.2 mg/dL; GLUCOSE [4]: 124.33 mg/dL; LACTATE DEHYDROGENASE [4]: 283.67 u/L; LIPASE [4]: 9 u/L; PHOSPHORUS [4]: 12.9 mg/dL; POTASSIUM [4]: 7.13 MEQ/L; SODIUM [4]: 144.43 MEQ/L; TOTAL BILIRUBIN [4]: 0.27 mg/dL; TOTAL PROTEIN [4]: 6.03 G/DL; URIC ACID [4]: 1.33 mg/dL
